# According to patent US9932381B2, “Exendin-4 derivatives as selective glucagon receptor agonists” (priority 2014, dated 2018):
# Non-standard residues stand in square brackets, D forms with d. Residues, ends and D or L forms follow the SMILES beside them. Ala(4-thiazolyl) = N[C@@H](Cc1cscn1)C(=O)O; Chg = N[C@H](C(=O)O)C1CCCCC1; Phg = N[C@H](C(=O)O)c1ccccc1; Tle = CC(C)(C)[C@H](N)C(=O)O; Nle = CCCC[C@H](N)C(=O)O
# Key:
# [1] = molecular target: T1, human GLP-1 receptor (hGLP-1 R) (Homo sapiens, UniProt P43220); experiment: cAMP response (HTRF) of HEK-293 cells stably expressing human GLP-1 receptor; format: cell-based; conditions: Table 4
# T1 construct: expressed in transfected cells; host or cells: HEK-293
# Description: (§1) cAMP content of cells was determined using a kit from Cisbio Corp. (cat. no. 62AM4PEC) based on HTRF (Homogenous Time Resolved Fluorescence). For preparation, cells were split into T175 culture flasks and grown overnight to near confluency in medium (DMEM/10% FBS). Medium was then removed and cells washed with PBS lacking calcium and magnesium, followed by proteinase treatment with accutase (Sigma-Aldrich cat. no. A6964). Detached cells were washed and resuspended in assay buffer (1×HBSS; 20 mM HEPES, 0.1% BSA, 2 mM IBMX) and cellular density determined. They were then diluted to 400000 cells/ml and 25 μl-aliquots dispensed into the wells of 96-well plates. For measurement, 25 μl of test compound in assay buffer was added to the wells, followed by incubation for 30 minutes at room temperature. After addition of HTRF reagents diluted in lysis buffer (kit components), the plates were incubated for 1 hr, followed by measurement of the fluorescence ratio at 665/620 nm. In vitro potency of agonists was quantified by determining the concentrations that caused 50% activation of maximal response (EC50).
# [2] = molecular target: T2, human glucagon receptor (hGLUC R) (Homo sapiens, UniProt P47871); experiment: cAMP response (HTRF) of HEK-293 cells stably expressing human glucagon receptor; format: cell-based; conditions: Table 4; read-out: EC50 hGLUC R
# T2 construct: expressed in transfected cells; host or cells: HEK-293
# Description: as §1, with “temperature.” for “temperature. After addition of HTRF reagents diluted in lysis buffer (kit components), the plates were incubated for 1 hr, followed by measurement of the fluorescence ratio at 665/620 nm. In vitro potency of agonists was quantified by determining the concentrations that caused 50% activation of maximal response (EC50).”
# [3] = Solubility testing of exendin-4 derivatives (HPLC-UV of supernatant); format: physicochemical; conditions: pH 7.4
# Description: Prior to the testing of solubility and stability of a peptide batch, its content was determined. Therefore, two parameters were investigated, its purity (HPLC-UV) and the amount of salt load of the batch (ion chromatography).
# HPLC-UV was performed after 2 h of gentle agitation from the supernatant, which was obtained by 20 min of centrifugation at 4000 rpm.
# T2 sequence (P47871 26-477): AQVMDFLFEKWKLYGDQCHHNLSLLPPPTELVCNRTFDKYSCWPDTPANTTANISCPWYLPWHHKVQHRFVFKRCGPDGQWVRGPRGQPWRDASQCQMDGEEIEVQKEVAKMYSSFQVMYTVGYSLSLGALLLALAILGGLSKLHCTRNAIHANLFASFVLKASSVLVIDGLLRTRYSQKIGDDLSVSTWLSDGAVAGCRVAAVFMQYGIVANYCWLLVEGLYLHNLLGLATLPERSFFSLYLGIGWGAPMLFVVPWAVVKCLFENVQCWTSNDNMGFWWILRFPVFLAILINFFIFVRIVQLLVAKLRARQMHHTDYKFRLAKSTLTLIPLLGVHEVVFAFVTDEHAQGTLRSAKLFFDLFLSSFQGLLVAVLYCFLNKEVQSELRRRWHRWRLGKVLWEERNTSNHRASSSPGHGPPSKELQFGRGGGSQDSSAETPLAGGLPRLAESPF
# T1 sequence (P43220 24-463): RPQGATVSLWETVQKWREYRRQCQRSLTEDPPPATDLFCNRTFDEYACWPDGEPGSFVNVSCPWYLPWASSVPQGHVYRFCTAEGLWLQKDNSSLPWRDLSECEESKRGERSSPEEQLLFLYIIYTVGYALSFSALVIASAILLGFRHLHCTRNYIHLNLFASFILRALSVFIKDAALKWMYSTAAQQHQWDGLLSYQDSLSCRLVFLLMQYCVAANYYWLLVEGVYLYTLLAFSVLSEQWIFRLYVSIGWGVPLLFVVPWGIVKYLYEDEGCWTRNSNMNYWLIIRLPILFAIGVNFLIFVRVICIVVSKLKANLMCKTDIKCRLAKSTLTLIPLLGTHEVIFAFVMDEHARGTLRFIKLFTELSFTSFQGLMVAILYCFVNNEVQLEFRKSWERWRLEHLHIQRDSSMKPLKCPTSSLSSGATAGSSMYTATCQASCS
Structure (SMILES),EC50 [1],EC50 [2],solubility at 2 h [3],also measured
"CC[C@H](C)[C@H](NC(=O)[C@H](Cc1ccccc1)NC(=O)[C@H](CCC(=O)O)NC(=O)[C@H](CCC(N)=O)NC(=O)[C@H](C)NC(=O)[C@H](CCCNC(=N)N)NC(=O)[C@H](CCCNC(=N)N)NC(=O)[C@H](CO)NC(=O)[C@H](CCC(=O)O)NC(=O)[C@H](CC(C)C)NC(=O)[C@H](CCC(N)=O)NC(=O)[C@H](CCCCN)NC(=O)[C@H](CO)NC(=O)[C@@H](NC(=O)[C@H](CC(=O)O)NC(=O)[C@H](CO)NC(=O)[C@@H](NC(=O)[C@H](Cc1ccccc1)NC(=O)[C@@H](NC(=O)CNC(=O)[C@H](CCC(N)=O)NC(=O)[C@H](CO)NC(=O)[C@@H](N)Cc1cscn1)[C@@H](C)O)[C@@H](C)O)c1ccccc1)C(=O)N[C@@H](CCC(=O)O)C(=O)N[C@@H](Cc1c[nH]c2ccccc12)C(=O)N[C@@H](CC(C)C)C(=O)N[C@@H](CC(C)C)C(=O)N[C@@H](C)C(=O)N[C@H](C(=O)NCC(=O)N1CCC[C@H]1C(=O)N[C@@H](CCC(=O)O)C(=O)N[C@@H](CO)C(=O)NCC(=O)N[C@@H](C)C(=O)N1CCC[C@H]1C(=O)N1CCC[C@H]1C(=O)N1CCC[C@H]1C(=O)N[C@@H](CO)C(=O)O)[C@@H](C)O [SEQ ID NO 10, Tza-S-Q-G-T-F-T-S-D-Phg-SKQLESRRAQEFIEWLLATGPESGAPPPS-OH] (H-[Ala(4-thiazolyl)]SQGTFTSD[Phg]SKQLESRRAQEFIEWLLATGPESGAPPPS-OH; N-terminus assumed)",45 nM,0.006 nM,,
"CC[C@H](C)[C@H](NC(=O)[C@H](Cc1ccccc1)NC(=O)[C@H](CCC(=O)O)NC(=O)[C@H](CCC(N)=O)NC(=O)[C@H](C)NC(=O)[C@H](CCCNC(=N)N)NC(=O)[C@H](CCCNC(=N)N)NC(=O)[C@H](CO)NC(=O)[C@H](CCC(=O)O)NC(=O)[C@H](CC(C)C)NC(=O)[C@H](CCC(N)=O)NC(=O)[C@H](CCCCN)NC(=O)[C@H](CO)NC(=O)[C@H](CC(C)C)NC(=O)[C@H](CC(=O)O)NC(=O)[C@H](CO)NC(=O)[C@@H](NC(=O)[C@H](Cc1ccccc1)NC(=O)[C@@H](NC(=O)CNC(=O)[C@H](CCC(N)=O)NC(=O)[C@H](CO)NC(=O)[C@@H](N)Cc1cscn1)[C@@H](C)O)[C@@H](C)O)C(=O)N[C@@H](CCC(=O)O)C(=O)N[C@@H](Cc1c[nH]c2ccccc12)C(=O)N[C@@H](CC(C)C)C(=O)N[C@@H](CC(C)C)C(=O)N[C@@H](C)C(=O)N[C@H](C(=O)NCC(=O)N1CCC[C@H]1C(=O)N[C@@H](CCC(=O)O)C(=O)N[C@@H](CO)C(=O)NCC(=O)N[C@@H](C)C(=O)N1CCC[C@H]1C(=O)N1CCC[C@H]1C(=O)N1CCC[C@H]1C(=O)N[C@@H](CO)C(=O)O)[C@@H](C)O [SEQ ID NO 12, Tza-SQGTFTSDLSKQLESRRAQEFIEWLLATGPESGAPPPS-OH] (H-[Ala(4-thiazolyl)]SQGTFTSDLSKQLESRRAQEFIEWLLATGPESGAPPPS-OH)",20 nM,0.001 nM,,
"CCCC[C@H](NC(=O)[C@H](CCC(N)=O)NC(=O)[C@H](CCCCN)NC(=O)[C@H](CO)NC(=O)[C@@H](NC(=O)[C@H](CC(=O)O)NC(=O)[C@H](CO)NC(=O)[C@@H](NC(=O)[C@H](Cc1ccccc1)NC(=O)[C@@H](NC(=O)CNC(=O)[C@H](CCC(N)=O)NC(=O)[C@H](CO)NC(=O)[C@@H](N)Cc1cscn1)[C@@H](C)O)[C@@H](C)O)C1CCCCC1)C(=O)N[C@@H](CCC(=O)O)C(=O)N[C@@H](CO)C(=O)N[C@@H](CCCNC(=N)N)C(=O)N[C@@H](CCCNC(=N)N)C(=O)N[C@@H](C)C(=O)N[C@@H](CCC(N)=O)C(=O)N[C@@H](CC(=O)O)C(=O)N[C@@H](Cc1ccccc1)C(=O)N[C@H](C(=O)N[C@@H](CCC(=O)O)C(=O)N[C@@H](Cc1c[nH]c2ccccc12)C(=O)N[C@@H](CC(C)C)C(=O)N[C@@H](CC(C)C)C(=O)N[C@@H](C)C(=O)N[C@H](C(=O)NCC(=O)N1CCC[C@H]1C(=O)N[C@@H](CCC(=O)O)C(=O)N[C@@H](CO)C(=O)NCC(=O)N[C@@H](C)C(=O)N1CCC[C@H]1C(=O)N1CCC[C@H]1C(=O)N1CCC[C@H]1C(=O)N[C@@H](CO)C(=O)O)[C@@H](C)O)[C@@H](C)CC [SEQ ID NO 20, Tza-S-Q-G-T-F-T-S-D-Chg-S-K-Q-Nle-ESRRAQDFIEWLLATGPESGAPPPS-OH] (H-[Ala(4-thiazolyl)]SQGTFTSD[Chg]SKQ[Nle]ESRRAQDFIEWLLATGPESGAPPPS-OH; N-terminus assumed)",,,,Solubility (pH7.4) [mg/ml] ([3]; 2 h): >10.0 mg/ml
"CC[C@H](C)[C@H](NC(=O)[C@H](Cc1ccccc1)NC(=O)[C@H](CC(=O)O)NC(=O)[C@H](CCC(N)=O)NC(=O)[C@H](C)NC(=O)[C@H](CCCNC(=N)N)NC(=O)[C@H](CCCNC(=N)N)NC(=O)[C@H](CO)NC(=O)[C@H](CCC(=O)O)NC(=O)[C@H](CC(C)C)NC(=O)[C@H](CCC(N)=O)NC(=O)[C@H](CCCCN)NC(=O)[C@H](CO)NC(=O)[C@@H](NC(=O)[C@H](CC(=O)O)NC(=O)[C@H](CO)NC(=O)[C@@H](NC(=O)[C@H](Cc1ccccc1)NC(=O)[C@@H](NC(=O)CNC(=O)[C@H](CCC(N)=O)NC(=O)[C@H](CO)NC(=O)[C@@H](N)Cc1cscn1)[C@@H](C)O)[C@@H](C)O)C1CCCCC1)C(=O)N[C@@H](CCC(=O)O)C(=O)N[C@@H](Cc1c[nH]c2ccccc12)C(=O)N[C@@H](CC(C)C)C(=O)N[C@@H](CC(C)C)C(=O)N[C@@H](C)C(=O)N[C@H](C(=O)NCC(=O)N1CCC[C@H]1C(=O)N[C@@H](CCC(=O)O)C(=O)N[C@@H](CO)C(=O)NCC(=O)N[C@@H](C)C(=O)N1CCC[C@H]1C(=O)N1CCC[C@H]1C(=O)N1CCC[C@H]1C(=O)N[C@@H](CO)C(=O)O)[C@@H](C)O [SEQ ID NO 23, Tza-S-Q-G-T-F-T-S-D-Chg-SKQLESRRAQDFIEWLLATGPESGAPPPS-OH] (H-[Ala(4-thiazolyl)]SQGTFTSD[Chg]SKQLESRRAQDFIEWLLATGPESGAPPPS-OH; N-terminus assumed)",,,> 10000 µg/mL,
"CCCC[C@H](NC(=O)[C@H](CCC(N)=O)NC(=O)[C@H](CCCCN)NC(=O)[C@H](CO)NC(=O)[C@@H](NC(=O)[C@H](CC(=O)O)NC(=O)[C@H](CO)NC(=O)[C@@H](NC(=O)[C@H](Cc1ccccc1)NC(=O)[C@@H](NC(=O)CNC(=O)[C@H](CCC(N)=O)NC(=O)[C@H](CO)NC(=O)[C@@H](N)Cc1cscn1)[C@@H](C)O)[C@@H](C)O)C1CCCCC1)C(=O)N[C@@H](CCC(=O)O)C(=O)N[C@@H](CO)C(=O)N[C@@H](CCCNC(=N)N)C(=O)N[C@@H](CCCNC(=N)N)C(=O)N[C@@H](C)C(=O)N[C@@H](CCC(N)=O)C(=O)N[C@@H](CCC(=O)O)C(=O)N[C@@H](Cc1ccccc1)C(=O)N[C@H](C(=O)N[C@@H](CCC(=O)O)C(=O)N[C@@H](Cc1c[nH]c2ccccc12)C(=O)N[C@@H](CC(C)C)C(=O)N[C@@H](CC(C)C)C(=O)N[C@@H](C)C(=O)N[C@H](C(=O)NCC(=O)N1CCC[C@H]1C(=O)N[C@@H](CCC(=O)O)C(=O)N[C@@H](CO)C(=O)NCC(=O)N[C@@H](C)C(=O)N1CCC[C@H]1C(=O)N1CCC[C@H]1C(=O)N1CCC[C@H]1C(=O)N[C@@H](CO)C(=O)O)[C@@H](C)O)[C@@H](C)CC [SEQ ID NO 24, Tza-S-Q-G-T-F-T-S-D-Chg-S-K-Q-Nle-ESRRAQEFIEWLLATGPESGAPPPS-OH] (H-[Ala(4-thiazolyl)]SQGTFTSD[Chg]SKQ[Nle]ESRRAQEFIEWLLATGPESGAPPPS-OH)",,,> 10000 µg/mL,
"CCCC[C@H](NC(=O)[C@H](CCC(N)=O)NC(=O)[C@H](CCCCN)NC(=O)[C@H](CO)NC(=O)[C@@H](NC(=O)[C@H](CC(=O)O)NC(=O)[C@H](CO)NC(=O)[C@@H](NC(=O)[C@H](Cc1ccccc1)NC(=O)[C@@H](NC(=O)CNC(=O)[C@H](CCC(N)=O)NC(=O)[C@H](CO)NC(=O)[C@@H](N)Cc1cscn1)[C@@H](C)O)[C@@H](C)O)C(C)(C)C)C(=O)N[C@@H](CCC(=O)O)C(=O)N[C@@H](CO)C(=O)N[C@@H](CCCNC(=N)N)C(=O)N[C@@H](CCCNC(=N)N)C(=O)N[C@@H](C)C(=O)N[C@@H](CCC(N)=O)C(=O)N[C@@H](CCC(=O)O)C(=O)N[C@@H](Cc1ccccc1)C(=O)N[C@H](C(=O)N[C@@H](CCC(=O)O)C(=O)N[C@@H](Cc1c[nH]c2ccccc12)C(=O)N[C@@H](CC(C)C)C(=O)N[C@@H](CC(C)C)C(=O)N[C@@H](C)C(=O)N[C@H](C(=O)NCC(=O)N1CCC[C@H]1C(=O)N[C@@H](CCC(=O)O)C(=O)N[C@@H](CO)C(=O)NCC(=O)N[C@@H](C)C(=O)N1CCC[C@H]1C(=O)N1CCC[C@H]1C(=O)N1CCC[C@H]1C(=O)N[C@@H](CO)C(=O)O)[C@@H](C)O)[C@@H](C)CC [SEQ ID NO 25, Tza-S-Q-G-T-F-T-S-D-Tle-S-K-Q-Nle-ESRRAQEFIEWLLATGPESGAPPPS-OH] (H-[Ala(4-thiazolyl)]SQGTFTSD[Tle]SKQ[Nle]ESRRAQEFIEWLLATGPESGAPPPS-OH; N-terminus assumed)",,,> 10000 µg/mL,
